Converted amounts (≈) assume the structure as drawn. Where two headings read alike, the source gives them in different places.
Key:
P. acnes NCTC 737 [1] = assay: Disc diffusion assay (DDA); type: cell-based, Propionibacterium acnes; settings: for zone of inhibition at 200 µg/disc: Cutibacterium acnes
Procedure: (§1) The Propionibacterium spp organisms were cultured and maintained on Wilkins-Chalgren Anaerobe Medium (agar and broth) at pH 6.0; cultures were incubated anaerobically at 37° C. for 72 hours.
(§2) A sterile paper disc was impregnated with a sample of the test compound and a minimum of 30 minutes allowed for the solvents to evaporate as far as possible. The disc was then placed on an agar plate onto which the test micro-organism had been inoculated. The plate was then incubated under the conditions described above, following which it was examined visually for signs of bacterial growth. […] The diameter of this zone of “inhibition” was measured using a ProtoCOL™ automated zone sizer (Synbiosis, Cambridge, UK).
(§3) The area of the zone of inhibition was calculated from the measured zone diameter (D) using the formula π(D/2)^2.
(§4) For most DDA assays, 200 μg of each compound was loaded onto each disc.

S. aureus ATCC 29213 [2] = assay: MBC assay; type: cell-based, Staphylococcus aureus
Procedure: (§5) The staphylococci and enterococci were cultured and maintained on Mueller-Hinton Medium (agar and broth) at pH 7.2; they were incubated aerobically at 37° C. for 24 hours.
(§6) This assay, normally carried out after an MIC assay, determines the minimum concentration of a compound that is lethal to the micro-organism being tested.
(§7) These samples were then individually sub-cultured on non-selective agar medium, under the incubation conditions described above. Following incubation they were examined visually for bacterial growth.
(§8) The following experiments all used S. aureus ATCC 29213 as the test organism. MIC, MBC and DDA assays, as described above, were carried out using a range of different benzoquinones and hydroquinones. Supplemented DDA assays, in the presence of salt, lipid and blood, were also conducted.

S. aureus ATCC 29213 [3] = assay: Supplemented disc diffusion assay; type: cell-based, Staphylococcus aureus; settings: for zone of inhibition at 200 µg/disc: Staphylococcus aureus, ATCC29213, 24 h
Procedure: as §5, §2
(§9) Performance under these conditions can provide a more reliable indication of activity on topical application. For assays conducted using S. aureus strains, the supplements were defibrinated horse blood (5% v/v), lipid (Tween™ 80 at 1% v/v) and sodium chloride (100 mM). For those using Propionibacterium spp. strains, the supplements were lipid (Tween™ 80 at 1% v/v) and sodium chloride (100 mM).
as §8, §4

S. aureus ATCC 29213 [4] = assay: MIC assay; type: cell-based, Staphylococcus aureus
Procedure: 1. Staphylococcus aureus—the principal staphylococcal test micro-organism used in these studies was Staphylococcus aureus ATCC 29213. This strain is the one recommended for QC/QA purposes in Minimum Inhibitory Concentration (MIC) assays by the US Clinical and Laboratory Standards Institute (formerly the NCCLS), an FDA-recognised body.
as §5
(§10) This is a standard international method for quantitatively assessing the antimicrobial activity of a compound in a liquid medium. The method used a 96-well microtitre plate, capable of holding about 200 μl of liquid per well. […] The culture media were as described above for the relevant test organisms.
(§11) The wells were inoculated with a liquid suspension of freshly grown micro-organism and incubated under the conditions described above. After incubation, the microtitre plate was examined visually (with the aid of a light box) for cloudiness in each well, which would indicate microbial growth. The MIC value was recorded as the lowest concentration of test compound required to inhibit microbial growth, i.e., the lowest concentration for which the liquid in the well remained clear.
(§12) The assays were conducted in duplicate and included both negative (culture medium only) and positive (culture medium, diluting solvent and inoculum) controls.
as §8

P. acnes NCTC 737 [5] = assay: MBC assay; type: cell-based, Propionibacterium acnes
Procedure: as §1, §6, §7
(§13) MIC, MBC and DDA assays, as described above, were carried out using a range of different benzoquinones and hydroquinones. Supplemented DDA assays, in the presence of salt and lipid, were also conducted.

P. acnes NCTC 737 [6] = assay: MIC assay; type: cell-based, Propionibacterium acnes
Procedure: 2. Propionibacterium spp.—the principal propionibacterial strain used in these studies was Propionibacterium acnes NCTC 737.
as §1, §10, §11, §12, §13

S. aureus ATCC 29213 [7] = assay: Disc diffusion assay (DDA); type: cell-based, Staphylococcus aureus; settings: for zone of inhibition at 200 µg/disc: Staphylococcus aureus
Procedure: as §5, §2, §3, §4

P. acnes NCTC 737 [8] = assay: Supplemented disc diffusion assay; type: cell-based, Propionibacterium acnes; settings: for zone of inhibition at 200 µg/disc: Cutibacterium acnes, NCTC737, 72 h; for effect of lipid on antimicrobial activity: activity increases in the presence of lipid
Procedure: as §1, §2, §9, §13, §4

[9] = P. acnes NCTC 737, unsupplemented agar, 200 μg per disc (2,6-dimethoxy-p-benzoquinone 100 μg)
[10] = S. aureus ATCC 29213, Tween 80 at 1% v/v, 200 μg per disc (thymoquinone 50 μg, 2,6-dimethoxy-p-benzoquinone 100 μg)
[11] = S. aureus ATCC 29213, defibrinated horse blood 5% v/v, 200 μg per disc (thymoquinone 50 μg, 2,6-dimethoxy-p-benzoquinone 100 μg)
[12] = S. aureus ATCC 29213, sodium chloride 100 mM, 200 μg per disc (thymoquinone 50 μg, 2,6-dimethoxy-p-benzoquinone 100 μg)
[13] = S. aureus ATCC 29213, Mueller-Hinton broth pH 7.2, aerobic, 37° C., 24 hours
[14] = P. acnes NCTC 737, Wilkins-Chalgren broth pH 6.0, anaerobic, 37° C., 72 hours
[15] = S. aureus ATCC 29213, unsupplemented agar, 200 μg per disc (thymoquinone 50 μg, 2,6-dimethoxy-p-benzoquinone 100 μg)
[16] = P. acnes NCTC 737, Tween 80 at 1% v/v, 200 μg per disc (2,6-dimethoxy-p-benzoquinone 100 μg)
[17] = P. acnes NCTC 737, sodium chloride 100 mM, 200 μg per disc (2,6-dimethoxy-p-benzoquinone 100 μg)

MIC/MBC ratio (S. aureus ATCC 29213 [2])	MIC/MBC ratio (P. acnes NCTC 737 [5]; P. acnes NCTC 737)	MIC (S. aureus ATCC 29213 [4]; [13]) [µg/mL]	MIC (P. acnes NCTC 737 [6]; [14]) [µg/mL]	SMILES	effect of lipid on antimicrobial activity (P. acnes NCTC 737 [8]; P. acnes NCTC 737)	DDA (diameter of zone of inhibition) (P. acnes NCTC 737 [1]; [9]) [mm]	MBC (S. aureus ATCC 29213 [2]) [µg/mL]	DDA + lipid (S. aureus ATCC 29213 [3]; [10]) [mm]	DDA + blood (S. aureus ATCC 29213 [3]; [11]) [mm]	DDA + salt (S. aureus ATCC 29213 [3]; [12]) [mm]	MBC (P. acnes NCTC 737 [5]; P. acnes NCTC 737) [µg/mL]	DDA (diameter of zone of inhibition) (S. aureus ATCC 29213 [7]; [15]) [mm]	DDA + lipid (P. acnes NCTC 737 [8]; [16]) [mm]	DDA + salt (P. acnes NCTC 737 [8]; [17]) [mm]	other results
0.5	0.5			COC1=C(OC)C(=O)C(C)=CC1=O [2,3-dimethoxy-5-methyl-p-benzoquinone]	potentiated										zone of inhibition at 200 µg/disc (P. acnes NCTC 737 [1]; NCTC737, P. acnes NCTC 737, unsupplemented agar, 200 μg per disc (2,6-dimethoxy-p-benzoquinone 100 μg), read-out: DDA (diameter of zone of inhibition)): 33.4 mm; MBC (S. aureus ATCC 29213 [2]; Staphylococcus aureus, ATCC29213, read-out: MBC): 15.6 µg/mL (≈ 85.6 µM); zone of inhibition at 200 µg/disc (S. aureus ATCC 29213 [3]; S. aureus ATCC 29213, Tween 80 at 1% v/v, 200 μg per disc (thymoquinone 50 μg, 2,6-dimethoxy-p-benzoquinone 100 μg), read-out: DDA + lipid): 26.5 mm; zone of inhibition at 200 µg/disc (S. aureus ATCC 29213 [3]; S. aureus ATCC 29213, defibrinated horse blood 5% v/v, 200 μg per disc (thymoquinone 50 μg, 2,6-dimethoxy-p-benzoquinone 100 μg), read-out: DDA + blood): 19.9 mm; zone of inhibition at 200 µg/disc (S. aureus ATCC 29213 [3]; S. aureus ATCC 29213, sodium chloride 100 mM, 200 μg per disc (thymoquinone 50 μg, 2,6-dimethoxy-p-benzoquinone 100 μg), read-out: DDA + salt): 25.8 mm; MIC (S. aureus ATCC 29213 [4]; Staphylococcus aureus, ATCC29213, S. aureus ATCC 29213, Mueller-Hinton broth pH 7.2, aerobic, 37° C., 24 hours, read-out: MIC): 7.8 µg/mL (≈ 42.8 µM); MBC (P. acnes NCTC 737 [5]; Cutibacterium acnes, NCTC737, P. acnes NCTC 737, read-out: MBC): 31.2 µg/mL (≈ 172 µM); MIC (P. acnes NCTC 737 [6]; Cutibacterium acnes, NCTC737, P. acnes NCTC 737, Wilkins-Chalgren broth pH 6.0, anaerobic, 37° C., 72 hours, read-out: MIC): 15.6 µg/mL (≈ 85.6 µM); zone of inhibition at 200 µg/disc (S. aureus ATCC 29213 [7]; ATCC29213, S. aureus ATCC 29213, unsupplemented agar, 200 μg per disc (thymoquinone 50 μg, 2,6-dimethoxy-p-benzoquinone 100 μg), read-out: DDA (diameter of zone of inhibition)): 26.8 mm; zone of inhibition at 200 µg/disc (P. acnes NCTC 737 [8]; P. acnes NCTC 737, Tween 80 at 1% v/v, 200 μg per disc (2,6-dimethoxy-p-benzoquinone 100 μg), read-out: DDA + lipid): 44 mm; zone of inhibition at 200 µg/disc (P. acnes NCTC 737 [8]; P. acnes NCTC 737, sodium chloride 100 mM, 200 μg per disc (2,6-dimethoxy-p-benzoquinone 100 μg), read-out: DDA + salt): 43.4 mm
0.5	0.5	3.9 (≈ 16.5 µM)	15.6 (≈ 66 µM)	CCCCCCOc1cc(C)c(O)c(C)c1C [1-o-hexyl-2,3,5-trimethyl-p-hydroquinone]		16.64	7.8 (≈ 33 µM)	0.0	0.0	8.72	31.25 (≈ 132 µM)	8.61	0.0	16.43	
0.5	0.25	7.8 (≈ 56.5 µM)	7.8 (≈ 56.5 µM)	CCc1cc(O)ccc1O [2-ethyl-p-hydroquinone]		9.90						21.06	0.0		

The remaining lines, values behind:

SMILES	MIC/MBC ratio (S. aureus ATCC 29213 [2])	MIC/MBC ratio (P. acnes NCTC 737 [5]; P. acnes NCTC 737)	MIC (S. aureus ATCC 29213 [4]; [13]) [µg/mL]	MIC (P. acnes NCTC 737 [6]; [14]) [µg/mL]	effect of lipid on antimicrobial activity (P. acnes NCTC 737 [8]; P. acnes NCTC 737)	DDA (diameter of zone of inhibition) (P. acnes NCTC 737 [1]; [9]) [mm]	MBC (S. aureus ATCC 29213 [2]) [µg/mL]	DDA + lipid (S. aureus ATCC 29213 [3]; [10]) [mm]	DDA + blood (S. aureus ATCC 29213 [3]; [11]) [mm]	DDA + salt (S. aureus ATCC 29213 [3]; [12]) [mm]	MBC (P. acnes NCTC 737 [5]; P. acnes NCTC 737) [µg/mL]	DDA (diameter of zone of inhibition) (S. aureus ATCC 29213 [7]; [15]) [mm]	DDA + lipid (P. acnes NCTC 737 [8]; [16]) [mm]	DDA + salt (P. acnes NCTC 737 [8]; [17]) [mm]	other results
CC1=CC(=O)C=CC1=O [2-methyl-p-benzoquinone]	1	0.5			potentiated										zone of inhibition at 200 µg/disc (P. acnes NCTC 737 [1]; NCTC737, read-out: DDA (diameter of zone of inhibition)): 35.9 mm; MBC (S. aureus ATCC 29213 [2]; Staphylococcus aureus, ATCC29213): 15.6 µg/mL (≈ 128 µM); zone of inhibition at 200 µg/disc (S. aureus ATCC 29213 [3]; read-out: DDA + blood): 15.9 mm; zone of inhibition at 200 µg/disc (S. aureus ATCC 29213 [3]; read-out: DDA + lipid): 35.6 mm; zone of inhibition at 200 µg/disc (S. aureus ATCC 29213 [3]; read-out: DDA + salt): 35 mm; MIC (S. aureus ATCC 29213 [4]; Staphylococcus aureus, ATCC29213, 24 h, pH 7.2): 15.6 µg/mL (≈ 128 µM); MBC (P. acnes NCTC 737 [5]; Cutibacterium acnes, NCTC737): 31.2 µg/mL (≈ 256 µM); activity against P. acnes NCTC 737 (in words) (P. acnes NCTC 737 [6]): strongly so; MIC (P. acnes NCTC 737 [6]; Cutibacterium acnes, NCTC737, 72 h, pH 6): 15.6 µg/mL (≈ 128 µM); zone of inhibition at 200 µg/disc (S. aureus ATCC 29213 [7]; ATCC29213, read-out: DDA (diameter of zone of inhibition)): 35.1 mm; zone of inhibition at 200 µg/disc (P. acnes NCTC 737 [8]; read-out: DDA + lipid): 48.9 mm; zone of inhibition at 200 µg/disc (P. acnes NCTC 737 [8]; read-out: DDA + salt): 42.6 mm
Oc1c(Cl)c(Cl)c(O)c(Cl)c1Cl [tetrachloro-p-hydroquinone]	1	1	125 (≈ 504 µM)	31.25 (≈ 126 µM)		25.37	125 (≈ 504 µM)	14.69	9.38	16.88	31.25 (≈ 126 µM)	16.25	0.0	28.27	

— patent US20090030086A1, “ANTIMICROBIAL AGENTS” (priority 2005, published 2009)
